According to the supplement of paper PMC10307832:

compound: C1=CC2=NC=CN=C2C=C1/C=C/3\C(=O)NC(=O)S3 + Nc1ncn([C@H]2C[C@H](O)[C@@H](CO)O2)c(=O)n1 [Decitabine] (partner 2 µM); experiment: relative viability (nuclei count vs DMSO), 5 days (fraction); higher = more cells survive; settings: first compound 0.02 µM
Method in brief: (§1)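 Lung cancer cell lines were seeded in 1536-well plates and dosed by pin tool the next day, with either a single drug or a fixed anchor-drug dose combined with five library-drug doses (not always all listed) spaced in √10 steps. Five days later, one step fixed the cells and stained their nuclei (final 0.05% Triton X-100, 1% formaldehyde, 1 ug/ml Hoechst), and nuclei were counted on 4× images. Relative viability is the nuclei count in treated wells divided by the count in vehicle wells, and each value is the median of duplicate plates.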

Cell Line	relative viability
NCI-H1993	0.527
SW 1573	0.506
NCI-H838	0.429
LCLC-103H	0.71
NCI-H520	0.481
NCI-H2126	0.567
EMC-BAC-2	0.933
NCI-H2085	0.495
HCC-366	0.284
NCI-H1666	0.717
NCI-H596	0.886
LK-2	0.285
NCI-H2087	0.355
NCI-H2342	0.726
SK-MES-1	0.353
H3255	0.6
COR-L23	0.481
COR-L 105	0.599
LOU-NH91	0.797
ChaGo-K-1	0.512
NCI-H2170	0.467
A549	0.292
SW 900	0.418
NCI-H1648	0.33
NCI-H1395	0.637
NCI-H1793	0.417
NCI-H1944	0.364
ABC-1	1.04
NCI-H358	0.227

same assay, conditions: first compound 0.06325 µM

Cell Line	relative viability
NCI-H522	0.706
NCI-H727	0.848
NCI-H1650	0.375
NCI-H1993	0.594
SW 1573	0.65
NCI-H838	0.46
LCLC-103H	0.798
NCI-H520	0.545
NCI-H2126	0.647
EMC-BAC-2	1.01
NCI-H2085	0.457
NCI-H1666	0.709
NCI-H596	0.954
LK-2	0.291
NCI-H2087	0.255
NCI-H2342	0.664

Cell Line	relative viability
SK-MES-1	0.403
H3255	0.649
COR-L23	0.466
COR-L 105	0.69
LOU-NH91	0.849
ChaGo-K-1	0.459
NCI-H2170	0.47
A549	0.245
SW 900	0.356
NCI-H1648	0.549
NCI-H1395	0.693
NCI-H1793	0.391
NCI-H1944	0.386
ABC-1	1.31
NCI-H358	0.22

same assay, conditions: first compound 0.2 µM

Cell Line	relative viability
NCI-H522	0.594
NCI-H727	0.957
NCI-H1650	0.47
NCI-H1993	0.737
SW 1573	0.603
NCI-H838	0.415
LCLC-103H	0.707
NCI-H520	0.482
NCI-H2126	0.567
EMC-BAC-2	1.05
NCI-H2085	0.578
HCC-366	0.386
NCI-H1666	0.775
NCI-H596	1.09
LK-2	0.452
NCI-H2087	0.256

Cell Line	relative viability
NCI-H2342	0.805
SK-MES-1	0.437
H3255	0.595
COR-L23	0.445
COR-L 105	0.673
LOU-NH91	0.83
ChaGo-K-1	0.533
NCI-H2170	0.451
A549	0.297
SW 900	0.515
NCI-H1648	0.57
NCI-H1395	0.74
NCI-H1793	0.559
NCI-H1944	0.432
ABC-1	1.4
NCI-H358	0.221

same assay, conditions: first compound 0.6325 µM

Cell Line	relative viability
NCI-H522	0.74
NCI-H727	0.915
NCI-H1650	0.36
NCI-H1993	0.557
SW 1573	0.544
NCI-H838	0.481
LCLC-103H	0.747
NCI-H520	0.436
NCI-H2126	0.527
EMC-BAC-2	0.922
NCI-H2085	0.539
HCC-366	0.306
NCI-H1666	0.691
NCI-H596	0.972
LK-2	0.279
NCI-H2087	0.253
NCI-H2342	0.69
SK-MES-1	0.357
H3255	0.534
COR-L23	0.414
COR-L 105	0.683
LOU-NH91	0.782
ChaGo-K-1	0.498
NCI-H2170	0.414
A549	0.273
NCI-H1395	0.703
NCI-H1793	0.447
NCI-H1944	0.423
ABC-1	1.1
NCI-H358	0.268

same assay, conditions: first compound 2 µM

Cell Line	relative viability
NCI-H522	0.683
NCI-H727	0.445
NCI-H1650	0.347
NCI-H1993	0.507
SW 1573	0.367
NCI-H838	0.39
LCLC-103H	0.709
NCI-H520	0.562
NCI-H2126	0.481
EMC-BAC-2	0.808
NCI-H2085	0.566
HCC-366	0.276
NCI-H1666	0.672
NCI-H596	1.72
LK-2	0.154
NCI-H2087	0.267

Cell Line	relative viability
NCI-H2342	0.716
SK-MES-1	0.331
H3255	0.622
COR-L23	0.369
COR-L 105	0.593
LOU-NH91	0.756
ChaGo-K-1	0.568
NCI-H2170	0.46
A549	0.293
SW 900	0.433
NCI-H1648	0.539
NCI-H1395	0.651
NCI-H1793	0.552
NCI-H1944	0.462
ABC-1	0.806
NCI-H358	0.182

compound: C1=CC2=NC=CN=C2C=C1/C=C/3\C(=O)NC(=O)S3 + CC(=O)Nc1cccc(-n2c(=O)n(C3CC3)c(=O)c3c(Nc4ccc(I)cc4F)n(C)c(=O)c(C)c32)c1 [Trametinib] (partner 0.02 µM); experiment: as above; settings: first compound 0.02 µM
Method in brief: as §1

Cell Line	relative viability
NCI-H522	0.75
NCI-H727	0.386
NCI-H1650	0.541
NCI-H1993	0.516
SW 1573	0.538
NCI-H838	0.537
LCLC-103H	0.676
NCI-H520	0.648
NCI-H2126	0.481
EMC-BAC-2	0.92
NCI-H2085	0.477
HCC-366	0.307
NCI-H1666	0.826
NCI-H596	0.764
LK-2	0.769
NCI-H2087	0.178

Cell Line	relative viability
NCI-H2342	0.698
SK-MES-1	0.509
H3255	0.607
COR-L23	0.557
COR-L 105	0.422
LOU-NH91	0.791
ChaGo-K-1	0.9
NCI-H2170	0.866
SW 900	0.554
NCI-H1648	0.434
NCI-H1395	1.01
CAL-12T	0.398
NCI-H2228	0.51
NCI-H1793	0.411
NCI-H1944	0.394
NCI-H358	0.145

same assay, conditions: first compound 0.06325 µM

Cell Line	relative viability
NCI-H522	0.781
NCI-H727	0.369
NCI-H1650	0.595
NCI-H1993	0.527
SW 1573	0.683
NCI-H838	0.47
LCLC-103H	0.701
NCI-H520	0.65
NCI-H2126	0.591
EMC-BAC-2	0.944
NCI-H2085	0.427
NCI-H1666	0.813
NCI-H596	0.771
LK-2	0.813
NCI-H2087	0.188
NCI-H2342	0.865

Cell Line	relative viability
SK-MES-1	0.564
H3255	0.698
COR-L23	0.596
COR-L 105	0.549
LOU-NH91	0.808
ChaGo-K-1	0.785
NCI-H2170	1.01
SW 900	0.853
NCI-H1648	0.401
NCI-H1395	0.974
CAL-12T	0.301
NCI-H2228	0.556
NCI-H1793	0.334
NCI-H1944	0.384
NCI-H358	0.122

same assay, conditions: first compound 0.2 µM

Cell Line	relative viability
NCI-H522	0.806
NCI-H727	0.407
NCI-H1650	0.686
NCI-H1993	0.504
SW 1573	0.57
NCI-H838	0.555
LCLC-103H	0.634
NCI-H520	0.812
NCI-H2126	0.538
EMC-BAC-2	0.892
NCI-H2085	0.56
HCC-366	0.39
NCI-H1666	0.87
NCI-H596	0.794
LK-2	0.847
NCI-H2087	0.17

Cell Line	relative viability
NCI-H2342	0.821
SK-MES-1	0.643
H3255	0.643
COR-L23	0.617
COR-L 105	0.451
LOU-NH91	0.799
ChaGo-K-1	0.888
NCI-H2170	1.03
SW 900	0.742
NCI-H1648	0.496
NCI-H1395	1.06
CAL-12T	0.426
NCI-H2228	0.562
NCI-H1793	0.434
NCI-H1944	0.395
NCI-H358	0.139

same assay, conditions: first compound 0.6325 µM

Cell Line	relative viability
NCI-H522	0.771
NCI-H727	0.397
NCI-H1650	0.559
NCI-H1993	0.452
SW 1573	0.572
NCI-H838	0.454
LCLC-103H	0.665
NCI-H520	0.664
NCI-H2126	0.533
EMC-BAC-2	0.879
NCI-H2085	0.511
HCC-366	0.311
NCI-H1666	0.958
NCI-H596	0.887
LK-2	0.828
NCI-H2087	0.179
NCI-H2342	0.801
SK-MES-1	0.566
H3255	0.6
COR-L23	0.567
COR-L 105	0.408
LOU-NH91	0.792
ChaGo-K-1	0.887
NCI-H2170	0.868
NCI-H1395	0.978
CAL-12T	0.309
NCI-H2228	0.398
NCI-H1793	0.421
NCI-H1944	0.38
NCI-H358	0.126

same assay, conditions: first compound 2 µM

Cell Line	relative viability
NCI-H522	0.659
NCI-H727	0.29
NCI-H1650	0.63
NCI-H1993	0.506
SW 1573	0.445
NCI-H838	0.366
LCLC-103H	0.666
NCI-H520	0.62
NCI-H2126	0.48
EMC-BAC-2	0.713
NCI-H2085	0.51
HCC-366	0.309
NCI-H1666	0.696
NCI-H596	0.722
LK-2	0.567
NCI-H2087	0.233

Cell Line	relative viability
NCI-H2342	0.792
SK-MES-1	0.503
H3255	0.699
COR-L23	0.422
COR-L 105	0.423
LOU-NH91	0.726
ChaGo-K-1	0.872
NCI-H2170	0.986
SW 900	0.776
NCI-H1648	0.487
NCI-H1395	1.02
CAL-12T	0.271
NCI-H2228	0.338
NCI-H1793	0.529
NCI-H1944	0.394
NCI-H358	0.11
